Test results from US20250179032A1, “HETEROCYCLIC INHIBITORS OF GLUT9 FOR TREATMENT OF DISEASE” (HORIZON THERAPEUTICS IRELAND DAC, priority 2022, published 2025).

target: T1, H. sapiens SLC2A9 variant 2 (GLUT9B) (Homo sapiens, UniProt Q9NRM0); test: GLUT9 functional assay: uric acid uptake in HEK293T cells, allantoin formation by MS/MS as proxy of GLUT9B inhibition; assay type: cell-based; conditions: 15 minute assay; HEK293T cells stably expressing GLUT9B and transiently A. oryzae uricase; uric acid 0.3 mM, 37° C.; read-out: 15 min IC50
T1 sequence (Q9NRM0 1-511 isoform Q9NRM0-2): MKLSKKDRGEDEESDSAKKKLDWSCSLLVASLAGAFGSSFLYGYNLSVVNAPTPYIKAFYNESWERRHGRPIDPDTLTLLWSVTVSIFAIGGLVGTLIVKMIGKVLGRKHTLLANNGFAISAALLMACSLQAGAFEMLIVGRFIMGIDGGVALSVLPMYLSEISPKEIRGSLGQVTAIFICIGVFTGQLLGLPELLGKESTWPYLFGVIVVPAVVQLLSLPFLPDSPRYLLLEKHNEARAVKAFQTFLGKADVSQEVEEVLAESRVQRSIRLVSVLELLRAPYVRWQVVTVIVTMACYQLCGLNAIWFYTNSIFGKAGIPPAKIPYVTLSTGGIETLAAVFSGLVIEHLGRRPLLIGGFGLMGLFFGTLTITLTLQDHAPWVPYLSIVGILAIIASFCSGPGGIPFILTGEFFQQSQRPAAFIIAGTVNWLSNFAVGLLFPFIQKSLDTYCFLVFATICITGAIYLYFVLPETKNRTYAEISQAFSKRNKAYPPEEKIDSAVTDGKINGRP
Protocol: Uric acid stocks (9 mM, Millipore-Sigma, U0881) were generated in 125 mM choline chloride (Millipore-Sigma, C7017) and the concentration was determined at 293 nm using a molar extinction coefficient of 9600 M- ^1 cm- ^1) after collecting the absorbance spectra from 220-350 nm. Allantoin stocks (12 mM Toronto Research Chemicals, A540500) were generated in LCMS grade water (Thermo Scientific, 51140). The concentration of allantoin was determined by qNMR (Michigan State University). HEK293T cells were purchased from ATCC (HEK 293T/17 SF). Hanks buffered saline salts (HBSS) was purchased from Millipore-Sigma (H6648-1L).
SLC2A9 variant 2 was assayed in sodium gluconate buffer was composed of 125 mM sodium gluconate (TCI Chemicals, G0041-500G), 4.8 mM potassium gluconate (TCI Chemicals, G0040-500G), 1.2 mM calcium gluconate (TCI Chemicals, G0037-500G), 1.2 mM potassium phosphate (pH 7.4, Millipore-Sigma, 17835), 1.2 mM MgSO4, Millipore-Sigma, M2773-500G), 25 mM HEPES pH 7.3, (Millipore-Sigma, 54457). The final pH of the buffer was 7.4. Urate 1 was assayed in the same buffer save the pH was made to be 5.5 using 25 mM MES (pH 5.5) buffer vs 25 mM HEPES (pH 7.3) buffer.
Human untagged clone for (untagged)-human solute carrier family 2 member 9 (SLC2A9), transcript variant (SLC2A9/NM_001001290, FIG. 1 and FIG. 2; SEQ ID NOS: 3 and 4) was purchased from Origene (Cat #SC319239). SLC2A9 variant 2 (GLUT9B) gene was amplified by PCR using the following primer to allow for the introduction of EcoR1 and Not1 sites using the primers below.
HEK293T clonal stable cell lines containing the SLC2A9 variant 2 construct in the bicistronic pIRESpuro vector were generated using Viafect™ (Promega E4981) as per the manufactures instructions and puromycin selection (5 μg×mL^−1).
Uric acid uptake was measured in HEK293T cells stably expressing H. sapiens SLC2A9 variant 2 (GLUT9B) and transiently expressing A. oryzae uricase. Thus, decreased allantoin formation was used as a proxy of GLUT9B inhibition. Briefly, clonal cells were plated (53,000 cells/cm^2) in DMEM with 10% FBS. Twenty-four hours later, A. oryzae uricase was transfected, and assay conducted 3 days later across a 12-point curve in buffer (in mM: 125 sodium gluconate, 4.8 potassium gluconate, 1.2 calcium gluconate, 1.2 potassium phosphate, 1.2 magnesium sulfate4, 25 HEPES; pH 7.4) with uric acid at the GLUT9B Km (0.3 mM) for 15 min or for 60 min, at 37° C. Following wash (Hanks, 37° C.), plates were sealed, incubated (5 min, RT) and cells freeze-thawed prior to lysing in water and shaking (30 min RT). Lysates were filtered through PVDF and subjected to MSMS using a 10 mM ammonium acetate-based mobile phase on a porous graphitic carbon column. Allantoin was detected in positive ion mode. Desired analyte concentrations were quantitated by integrating the area under the curve followed by a log-logistic regression model and data compared to a standard curve prepared in a matching HEK293T biological matrix.
Mass spectrometry measurement of allantoin was completed using an Agilent RapidFire 300 coupled to a Sciex API 4000 mass spectrometer. The stationary phase was an Agilent cartridge D (hypercarb). Mobile phase A was 10 mM ammonium acetate. Mobile phase B was 5 mM ammonium acetate, 25% acetonitrile, 25% acetone. Allantoin was detected in positive ion mode with the following compound ID settings: Q1 159, Q3 115.8, DP 57, CE 12.5 Dwell 100 ms. The source settings were CAD 10, CUR 20, GS1 50, GS250 IS/NC: 5000, TEM 650, EP 10, CXP 10 where Q1 and Q3 resolution were set to low.
Data was quantitated using Area under the curve integration was performed with the RapidFire™ Integrator (Agilent Technologies) for the desired analytes. Quantitation was completed using in a using a log-logistic regression model using allantoin in matching HEK293T biological matrix.

IC50 | Structure (SMILES)
> 2000 nM | CCCCc1cnc(-c2ccc(OC)cc2)c(N2CCN(CC(=O)O)CC2)n1 [Compound 1, 2-(4-(6-Butyl-3-(4-Methoxyphenyl)Pyrazin-2-yl)Piperazin-1-yl)Acetic Acid]
> 2000 nM | CCCCc1cnc(-c2ccc(F)c(OC)c2)c(N2CCC(C(=O)O)CC2)n1 [Compound 2, 1-(6-Butyl-3-(4-Fluoro-3-Methoxyphenyl)Pyrazin-2-yl)Piperidine-4-carboxylic acid]
< 500 nM | CCCCc1cnc(-c2ccc(OC)cc2)c(N2CCC(C(=O)O)CC2)n1 [Compound 3, 1-(6-Butyl-3-(4-Methoxyphenyl)Pyrazin-2-yl)Piperidine-4-Carboxylic Acid]
< 500 nM | CCCCc1cnc(-c2ccc(OC)cc2)c(N2CC3C(C2)C3C(=O)O)n1 (centres unmarked) [Compound 4, 3-(6-Butyl-3-(4-Methoxyphenyl)Pyrazin-2-yl)-3-Azabicyclo[3.1.0]Hexane-6-carboxylic acid]
> 2000 nM | CCCCc1cnc(-c2ccc3[nH]ccc3c2)c(N2CCC(C(=O)O)CC2)n1 [Compound 5, 1-(6-Butyl-3-(1H-Indol-5-yl)Pyrazin-2-yl)Piperidine-4-Carboxylic Acid]
> 2000 nM | CCCCc1cnc(-c2ccc(OCCN(C)C)cc2)c(N2CCC(C(=O)O)CC2)n1 [Compound 6, 1-(6-Butyl-3-(4-(2-(Dimethylamino)Ethoxy)Phenyl)Pyrazin-2-yl)piperidine-4-carboxylic acid]
500 to 2000 nM | CCCCc1cnc(-c2ccc(S(C)(=O)=O)cc2)c(N2CCC(C(=O)O)CC2)n1 [Compound 7, 1-(6-Butyl-3-(4-(Methylsulfonyl)Phenyl)Pyrazin-2-yl)Piperidine-4-carboxylic acid]
> 2000 nM | CCCCc1cnc(-c2ccc(OC)cc2)c(N2CCC(S(C)(=O)=O)CC2)n1 [Compound 8, 5-Butyl-2-(4-Methoxyphenyl)-3-(4-(Methylsulfonyl)Piperidin-1-yl)pyrazine]
< 500 nM | CCCCc1cnc(-c2ccc(OC)cc2)c(N2CCC(F)(C(=O)O)CC2)n1 [Compound 10, 1-(6-Butyl-3-(4-Methoxyphenyl)Pyrazin-2-yl)-4-Fluoropiperidine-4-carboxylic acid]
< 500 nM | CCCCc1cnc(-c2ccc(OC)cc2)c(N2CCC(C(=O)NS(C)(=O)=O)CC2)n1 [Compound 11, 1-(6-Butyl-3-(4-Methoxyphenyl)Pyrazin-2-yl)-N-(Methylsulfonyl)Piperidine-4-carboxamide]
> 2000 nM | CCCCc1cnc(-c2ccc(OC)cc2)c(N2CCC(C(=O)O)C2)n1 (centres unmarked) [Compound 12, 1-(6-Butyl-3-(4-Methoxyphenyl)Pyrazin-2-yl)Pyrrolidine-3-Carboxylic acid]
< 500 nM | CCCCc1cnc(-c2ccc(OCCOC)cc2)c(N2CCC(C(=O)O)CC2)n1 [Compound 13, 1-(6-Butyl-3-(4-(2-Methoxyethoxy)Phenyl)Pyrazin-2-yl)Piperidine-4-carboxylic acid]
< 500 nM | CCCCc1cnc(-c2ccc(OC)cc2)c(N2CCC(C)(C(=O)O)CC2)n1 [Compound 14, 1-(6-Butyl-3-(4-Methoxyphenyl)Pyrazin-2-yl)-4-Methylpiperidine-4-carboxylic acid]
< 500 nM | CCCCc1cnc(-c2ccc(OC)cc2)c(N2CCC(CC(=O)O)CC2)n1 [Compound 15, 2-(1-(6-Butyl-3-(4-Methoxyphenyl)Pyrazin-2-yl)Piperidin-4-yl)Acetic acid]
< 500 nM | CCCCc1cnc(-c2ccc(OC)cc2)c(N2CCC(c3nn[nH]n3)CC2)n1 [Compound 16, 3-(4-(2H-Tetrazol-5-yl)Piperidin-1-yl)-5-Butyl-2-(4-methoxyphenyl)pyrazine]
500 to 2000 nM | CCCCc1cnc(-c2ccc3cc[nH]c3c2)c(N2CCC(C(=O)O)CC2)n1 [Compound 17, 1-(6-Butyl-3-(1H-Indol-6-yl)Pyrazin-2-yl)Piperidine-4-Carboxylic Acid]

More lines, now with the values behind:

Structure (SMILES) | IC50
CCCCc1cnc(-c2cc(F)c3occc3c2)c(N2CCC(C(=O)O)CC2)n1 [Compound 9, 1-(6-Butyl-3-(7-Fluorobenzofuran-5-yl)Pyrazin-2-yl)Piperidine-4-carboxylic acid] | < 500 nM
CCCCc1cnc(-c2ccc(OC)cc2)c(-c2ccc(C(=O)O)nc2)c1 [Compound 18, 5′-butyl-2′-(4-methoxyphenyl)-[3,3′-bipyridine]-6-carboxylic acid] | > 2000 nM
CCCCc1cnc(-c2ccc(OC)cc2)c(-c2csc(C(=O)O)c2)c1 [Compound 19, 4-(5-butyl-2-(4-methoxyphenyl)pyridin-3-yl)thiophene-2-carboxylic acid] | 500 to 2000 nM
CCCCc1cnc(-c2ccc(OC)cc2)c(-c2csc(C(=O)O)n2)c1 [Compound 20, 4-(5-butyl-2-(4-methoxyphenyl)pyridin-3-yl)thiazole-2-carboxylic acid] | > 2000 nM
CCCCc1cnc(-c2ccc(OC)cc2)c(-c2c[nH]c(C(=O)O)c2)c1 [Compound 21, 4-(5-butyl-2-(4-methoxyphenyl)pyridin-3-yl)-1H-pyrrole-2-carboxylic acid] | > 2000 nM
CCCCc1cnc(-c2ccc(OC)cc2)c(-c2coc(C(=O)O)c2)c1 [Compound 22, 4-(5-butyl-2-(4-methoxyphenyl)pyridin-3-yl)furan-2-carboxylic acid] | > 2000 nM
CCCCc1cnc(-c2ccc(OC)cc2)c(-c2cnc(C(=O)O)nc2)c1 [Compound 23, 5-(5-butyl-2-(4-methoxyphenyl)pyridin-3-yl)pyrimidine-2-carboxylic acid] | > 2000 nM

same assay, conditions: 60 minute assay; HEK293T cells stably expressing GLUT9B and transiently A. oryzae uricase; uric acid 0.3 mM, 37° C.; read-out: 60 min IC50

IC50 | Structure (SMILES)
500 to 2000 nM | COCCCc1cnc(-c2ccc3occc3c2)c(N2CCC[C@@H](C(=O)O)C2)n1 (single isomer, unassigned) [Compound 236]
< 500 nM | CCCCc1cnc(-c2ccc(OC)cc2)c(N2CCC(C(=O)O)CC2)n1 [Compound 3, 1-(6-Butyl-3-(4-Methoxyphenyl)Pyrazin-2-yl)Piperidine-4-Carboxylic Acid]

More lines, now with the values behind:

Structure (SMILES) | IC50
COCCCc1cnc(-c2ccc3occc3c2)c(N2CCC(C(=O)O)CC2C)n1 (racemic) [Compound 180, 1-(3-(benzofuran-5-yl)-6-(3-Methoxypropyl)Pyrazin-2-yl)-2-methylpiperidine-4-carboxylic acid] | < 500 nM
COCCCc1cnc(-c2cc(F)c3occc3c2)c(N2CC[C@@H](C(=O)O)C[C@@H]2C)n1 (single isomer, unassigned) [Compound 183] | < 500 nM
COCCCc1cnc(-c2cc(F)c3occc3c2)c(N2CC[C@H](C(=O)O)C[C@@H]2C)n1 (single isomer, unassigned) [Compound 229] | < 500 nM
COCCCc1cnc(-c2ccc3occc3c2)c(N2CCC[C@H](C(=O)O)C2)n1 (single isomer, unassigned) [Compound 235] | > 2000 nM
